Values of other authors in patent publication US9856441B2, “Soap bar” (COLGATE-PALMOLIVE COMPANY, priority 2013, dated 2018).

NCCS(=O)(=O)O [taurine, 2-aminoethanesulfonic acid]
maximum solubility of taurine in water (room temperature): about 6 weight %
solubility of taurine itself (taurine not in salt form): up to 6%
